Results: PubChem BioAssay (NCI)
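Results reflect a 48-hour exposure of cells in 96-well plates to compound at five concentrations. TGI: total growth inhibition.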

Tests used:
Test in all cases: NCI-60 cell line screen, 48 h
CAKI-1 renal = test system: CAKI-1 renal
HCT-116 colon = test system: HCT-116 colon
HOP-62 NSCLC = test system: HOP-62 NSCLC
HT29 colon = test system: HT29 colon
KM12 colon = test system: KM12 colon
M14 melanoma = test system: M14 melanoma
MOLT-4 leukemia = test system: MOLT-4 leukemia
NCI-H23 lung = test system: NCI-H23 lung
OVCAR-5 ovarian = test system: OVCAR-5 ovarian
SF-295 CNS = test system: SF-295 CNS
SK-OV-3 ovarian = test system: SK-OV-3 ovarian
SN12C renal = test system: SN12C renal
UACC-257 melanoma = test system: UACC-257 melanoma
UO-31 renal = test system: UO-31 renal
EKVX NSCLC = test system: EKVX NSCLC
HCC-2998 colon = test system: HCC-2998 colon
DU-145 prostate = test system: DU-145 prostate
HS 578T breast = test system: HS 578T breast
MCF7 breast = test system: MCF7 breast
NCI/ADR-RES ovarian = test system: NCI/ADR-RES ovarian

Compound | TGI (CAKI-1 renal) [µM] | TGI (HCT-116 colon) [µM] | TGI (HOP-62 NSCLC) [µM] | TGI (HT29 colon) [µM] | TGI (KM12 colon) [µM] | TGI (M14 melanoma) [µM] | TGI (MOLT-4 leukemia) [µM] | TGI (NCI-H23 lung) [µM] | TGI (OVCAR-5 ovarian) [µM] | TGI (SF-295 CNS) [µM] | TGI (SK-OV-3 ovarian) [µM] | TGI (SN12C renal) [µM] | TGI (UACC-257 melanoma) [µM] | TGI (UO-31 renal) [µM] | TGI (EKVX NSCLC) [µM] | TGI (HCC-2998 colon) [µM] | TGI (DU-145 prostate) [µM] | TGI (HS 578T breast) [nM] | TGI (MCF7 breast) [µM] | TGI (NCI/ADR-RES ovarian) [µM]
Cn1c(O)c(C(=O)Nc2cccs2)c(=O)[nH]c1=S | 47.8 | 26.5 | 40.6 | 34 | 33.4 | 64.3 | 61.7 | 28 | 69.5 | 38.1 | 72.5 | 74.6 | 32.6 | 34.1 | – | – | – | – | – | –
NC(=S)NNC(=O)/C(=C/c1ccc(/C=C(\NC(=O)c2ccccc2)C(=O)NNC(N)=S)cc1)NC(=O)c1ccccc1 | > 100 | > 100 | > 100 | > 100 | > 100 | > 100 | > 50.8 | > 100 | > 100 | > 100 | > 100 | > 100 | > 100 | > 100 | > 100 | > 100 | – | – | – | –
O=S(=O)([O-])[O-].[Fe+2].c1ccc(/C(=N\Nc2ccccn2)c2ccccn2)cc1 | 10.5 | 4.56 | 12 | 22.7 | 14.6 | 4.89 | 6.13 | 8.68 | 7.07 | 8.77 | 4.25 | 9.69 | 4.39 | 13.1 | 4.72 | 16.2 | – | – | – | –
COc1cc(/C=C/C(=O)c2sc(-n3nc(-c4ccccc4)cc3-c3ccccc3)nc2C)ccc1O | > 100 | – | > 100 | – | > 100 | – | > 100 | > 100 | > 100 | > 100 | > 100 | > 100 | > 100 | > 100 | > 100 | > 100 | – | – | – | –
CC(=O)OCC(=O)[C@@]1(O)CC[C@H]2[C@@H]3CCC4=CC(=O)[C@H](C)C[C@]4(C)[C@H]3[C@@H](O)C[C@@]21C | > 100 | > 100 | > 100 | > 100 | > 100 | > 100 | – | > 100 | > 100 | > 100 | > 100 | > 100 | > 100 | – | > 100 | > 100 | – | – | – | –
c1ccc(Nc2nnc(CSc3nc(-c4ccccc4)c(-c4ccccc4)[nH]3)s2)cc1 | – | 35.7 | 41 | 30.6 | 44.1 | 28.5 | 29.8 | 45.1 | 43.6 | 36 | 56 | 35 | 50 | 34.7 | 51.5 | – | – | – | – | –
CC(C)=CCCC1(C)C=Cc2c(c(C)cc3c2[nH]c2cc(O)ccc23)O1 (centres undefined) | – | > 25 | > 25 | > 25 | > 25 | > 25 | > 25 | – | > 25 | – | > 25 | > 25 | – | > 25 | – | > 25 | – | – | – | –
CC1CC2OC(=O)C3CC(O)CC(=C23)[C@@]12C[C@@H](c1ccoc1)OC2=O (some centres undefined) | – | > 100 | – | > 100 | > 100 | > 100 | > 100 | > 100 | > 100 | > 100 | > 100 | > 100 | > 100 | > 100 | > 100 | > 100 | – | – | – | –
NCCCCNCCCN1CC1 | 0.382 | > 100 | 5.83 | > 42 | 24.4 | > 100 | – | 16.2 | > 82.9 | > 100 | – | – | > 100 | 12.8 | 18.3 | 97.1 | > 29.6 | 2140 | > 100 | –
NS(=O)(=O)c1cc2c(cc1Cl)NC(C(=O)c1cc(=O)c3ccc(O)cc3o1)=NS2(=O)=O | > 100 | > 100 | > 100 | > 100 | > 100 | > 100 | > 100 | > 100 | > 100 | > 100 | > 100 | > 100 | > 100 | > 100 | > 100 | > 100 | – | – | – | –
COC(=O)N1C[C@@]2(C=CC3(CC2)OCCO3)c2ccccc21 | > 100 | > 100 | > 100 | > 100 | > 100 | > 100 | > 100 | > 100 | > 100 | > 100 | > 100 | > 100 | > 100 | > 100 | > 100 | > 100 | > 100 | – | > 100 | 95.6
CC(C)c1ccccc1SC1CC(=O)CC(Sc2ccccc2C(C)C)C12O[C@H](c1ccccc1)[C@@H](c1ccccc1)O2 (some centres undefined) | 62.5 | > 100 | > 100 | > 100 | > 100 | 40.8 | > 100 | > 100 | > 100 | > 100 | > 100 | 47.9 | > 100 | – | > 100 | > 100 | > 100 | – | > 100 | > 100
COc1ccccc1C1CC(=O)CC(c2ccccc2OC)C12C(=O)NC(=S)NC2=O (centres undefined) | > 100 | > 100 | > 100 | > 100 | > 100 | > 100 | 95.8 | > 100 | > 100 | > 100 | – | > 100 | > 100 | > 100 | > 100 | > 100 | > 100 | – | > 100 | > 100
C=CCONC(=O)c1ccc(Cl)cc1 | > 100 | > 100 | > 100 | > 100 | > 100 | > 100 | > 100 | > 100 | > 100 | > 100 | > 100 | > 100 | > 100 | > 100 | > 100 | > 100 | – | – | – | –
COc1ccc(/C=C2\OC(=O)C(Cl)=C2c2ccc(OC)cc2)cc1 | > 100 | – | > 100 | > 100 | > 100 | > 100 | > 100 | – | – | > 100 | > 100 | > 100 | > 100 | > 100 | > 100 | – | > 100 | > 100000 | – | –
